Source: US3941763A, “PGlu-D-Met-Trp-Ser-Tyr-D-Ala-Leu-Arg-Pro-Gly-NH2 and intermediates” (American Home Products Corporation, priority 1975, dated 1976)
Non-standard residues stand in square brackets, D forms with d. Residues, ends and D or L forms follow the SMILES beside them. pGlu = O=C1CC[C@@H](C(=O)O)N1

Experiments:
[1] = tested on: LRH-induced release of LH; experiment: Inhibition of LRH-induced release of LH in vivo in rats; design: species or system Male Sprague-Dawley rats
Experimental: Male Sprague-Dawley rats are divided into two groups of at least 5 animals in each group. One group receives the test compound. The other is the control group (no test compound). At zero time, the test group receives a 100-ng dose (subcutaneous) of D--Met^2 --D--Ala^6 --LRH in 0.2 ml. of physiological saline, while the control group receives a 0.2 ml. dose of physiological saline alone. At 20 minutes, blood samples are removed by cardiac puncture, and LH concentration is determined by double-antibody radioimmunoassay. At 45 minutes, the zero-time dose is repeated for each group of animals. At 50 minutes, the animals in each group are given a 200-ng dose (subcutaneous) of LRH in 0.2 ml. of physiological saline. A second blood sample is removed by cardiac puncture at 70 minutes and LH concentration is determined.

[2] = tested on: rat pituitary tissue cultures; experiment: Inhibition of LRH-induced release of LH in vitro in rat pituitary tissue cultures; assay type: cell-based
Experimental: LH concentration is determined by double-antibody radioimmunoassay.

Row | SMILES | LH Plasma Conc. ([1]; time 20 minutes, before LRH administration, 100 ng s.c. test compound at zero time) [ng/mL] | LH Plasma Conc. ([1]; time 70 minutes, after LRH administration (200 ng s.c. at 50 min), 100 ng s.c. test compound at 0 and 45 min) [ng/mL] | LH concentration ([2]; LRH 5 ng/ml + D-Met2-D-Ala6-LRH 10 ng/ml, double-antibody radioimmunoassay) [ng/mL] | LH concentration ([2]; LRH 5 ng/ml + D-Met2-D-Ala6-LRH 100 ng/ml, double-antibody radioimmunoassay) [ng/mL] | LH concentration ([2]; LRH 5 ng/ml + D-Met2-D-Ala6-LRH 1000 ng/ml, double-antibody radioimmunoassay) [ng/mL] | LH concentration ([2]; LRH 5 ng/ml alone, no test compound) [ng/mL]
1 | CSCC[C@@H](NC(=O)[C@@H]1CCC(=O)N1)C(=O)N[C@@H](Cc1c[nH]c2ccccc12)C(=O)N[C@@H](CO)C(=O)N[C@@H](Cc1ccc(O)cc1)C(=O)N[C@H](C)C(=O)N[C@@H](CC(C)C)C(=O)N[C@@H](CCCNC(=N)N)C(=O)N1CCC[C@H]1C(=O)NCC(=O)O [D--Met^2 --D--Ala^6 --LRH, L-Pyroglutamyl-D-methionyl-L-tryptophyl-L-seryl-L-tyrosyl-D-alanyl-L-leucyl-L-arginyl-L-prolyl-glycine] ([pGlu][dM]WSY[dA]LRPG-OH) | 10 ± 4 | 25 ± 5 | 308 ± 2 | 143 ± 2 | 92 ± 2 | 
2 | CC(C)C[C@H](NC(=O)CNC(=O)[C@H](Cc1ccc(O)cc1)NC(=O)[C@H](CO)NC(=O)[C@H](Cc1c[nH]c2ccccc12)NC(=O)[C@H](Cc1c[nH]cn1)NC(=O)[C@@H]1CCC(=O)N1)C(=O)N[C@@H](CCCNC(=N)N)C(=O)N1CCC[C@H]1C(=O)NCC(N)=O [LRH, L--pGlu--His--Trp--Ser--Tyr--Gly--Leu--Arg--Pro--Gly--NH2, reference compound] |  |  |  |  |  | 282 ± 11
